According to patent publication US9526766B2, “Potentiation of antibiotic treatment with a protein-lipid complex” (priority 2012, dated 2016):

How the values were obtained:
Staphylococcus aureus = assay: MIC by broth microdilution, antibiotics with and without ALAFAC; assay type: cell-based; settings: NRS 123; methicillin + ALAFAC; Ruthenium Red 30 μM, Amiloride 1 mM
Description: Methodology: Minimal inhibitory concentrations (MICs) were determined in 96-well microtiter plates using the microdilution method according to approved standards of the CLSI except that Todd-Hewitt medium supplemented with 0.5% yeast extract, which yields reproducible MIC results was used as the test medium for S. pneumoniae. For the remaining species Mueller-Hinton medium was used as indicated by the CLSI standard. Each well contained two-fold dilutions of antibiotic, was seeded with a final bacterial concentration of 10^5 CFU/mL, and was incubated for 18 h at 37° C. in a Synergy II microplate reader (Biotek, Winooski, Vt.) where the OD600 was recorded every 5 minutes to monitor bacterial growth. The MIC was defined as the lowest concentration of antimicrobial agent solution at which no increase in OD600 was detected.
In vitro susceptibility tests. Minimal inhibitory concentrations (MICs) were determined in 96-well microtiter plates using the microdilution method according to approved standards of the CLSI as described previously. However, rather than Mueller-Hinton broth, Tryptic soy broth (TSB) was used for susceptibility testing as it is the common media used for Staphylococcal growth, and as it has shown more consistent results for a variety of antimicrobials when tested against Staphylococci. […] A two-fold dilution series of antibiotics in triplicate and in the presence or absence of ALAFAC was prepared in 96 well microtiter plates, and each well was seeded with a final bacterial concentration of 10^5 CFU/mL, and was incubated for 24 h at 37° C. in a Synergy 2 microplate reader (Biotek, Winooski, Vt.) where the Optical Density at 600 nm (OD600) was recorded every 5 minutes to monitor bacterial growth. The MIC was defined as the lowest concentration of antimicrobial agent solution where no increase in OD600 was detected.

NRS 123 Staphylococci = assay: Membrane potential, DiBAC4(3) fluorescence; assay type: cell-based, Staphylococcus aureus; settings: Ruthenium Red, Amiloride
Description: Assessing membrane potential. Staphylococci grown to late log phase in TSB were pelleted by centrifugation at 2,400×g for 10 minutes and washed twice by resuspension in PBS. The bacterial pellet was resuspended in PBS to half of the original volume and energized with 50 mM glucose for 15 minutes at 37° C. To measure membrane potential of the staphylococcal membrane, 500 nM DiBAC4(3) (bis-(1,3-dibutylbarbituric acid) trimethine oxonol; Molecular Probes, Eugene, Oreg., USA) were added. […] The plate was then placed immediately into a pre-warmed (37° C.) Synergy 2 Multi-Mode Microplate Reader (BioTek) where fluorescence readings from DiBAC4(3) (485/20 nm excitation, 528/20 nm emission) were taken every minute for one hour. The difference in fluorescence intensity between the untreated control and the ALAFAC-treated sample was calculated for the “no inhibitor” samples and for the “inhibitor” samples using the values after 60 minutes. The fluorescence intensity difference for the “inhibitor” samples was then expressed as fold change of the intensity compared with the ALAFAC alone (“no inhibitor”) sample, providing the degree of depolarization compared to the “ALAFAC alone” sample.

NRS 384 Staphylococci [1] = assay: Intracellular pH measurement (BCECF-AM); assay type: cell-based, Staphylococcus aureus; settings: ALAFAC 100 μg/mL (6 μM), RuR 30 μM, Amiloride 1 mM
Description: Intracellular pH measurement. A reported protocol for intracellular pH (pHi) measurement was modified and optimized for S. aureus by testing the effect of various dye concentrations and staining times on the measured fluorescence of S. aureus isolate NRS 384 grown to mid-log phase. Cell samples were subjected to increasing concentrations of the membrane-permeant acetoxymehtyl (AM) ester derivative of the dual-excitation ratiometric pH indicator dye BCECF (2′,7′-bis-(2-carboxyethyl)-5-(and-6)-carboxyfluorescein), for 30 minutes at 30° C. Fluorescence was measured as a ratio of fluorescence at 530 nm with dual wavelength excitation at 490 and 440 nm and calibration curves were established for each independent experiment. After testing a number of loading concentrations we observed that the fluorescence ratios remains generally constant when concentrations above 20 μM was used. Therefore 25 μM BCECF-AM was used for all experiments. The optimized staining time, 30 minutes, was determined using the same criteria and was used for all experiments. After loading, the cells were washed twice in PBS by centrifugation and the resulting pellet was resuspended in PBS to the original volume and ALAFAC and ALAFAC/antibiotic combinations were added. CCCP was added as a positive control. CCCP is a lipophilic weak acid that is soluble in the lipid domain of the membrane in both the protonated and deprotonated form. This allows it to act as a protonophore causing an influx of H^+ into the cytoplasm, dissipating both the electrical potential and the H^+ gradient across the inner membrane. For each experiment calibration was performed where cells were resuspended in high [K^+] buffers at different pH values ranging from 6.5 to 8.0.

Streptococcus pneumoniae = assay: Short-time kill assay on planktonic cultures; assay type: cell-based; settings: D39, 1 hour, staurosporine 20 μM; for Effect of inhibitor on ALAFAC potentiation of gentamicin and penicillin G: Ruthenium Red 30 μM
Description: Methodology: In late logarithmic growth phase, the bacteria were harvested by centrifugation at 12,000×g for 10 minutes and resuspended in phosphate-buffered saline (PBS; […], […], […], pH 7.4). Appropriate dilutions of the bacteria were suspended in PBS and treated with indicated concentrations of ALAFAC and/or antibiotics for various times. The effect on bacterial viability was assessed by plating serial dilutions of bacterial sample on tryptic soy agar plates containing 5% sheep blood (viable counts) and determining viable colony forming units after overnight growth at 37° C.
Short-time kill assays. In late logarithmic growth phase, the bacteria were harvested by centrifugation at 12,000×g for 10 minutes and resuspended in phosphate-buffered saline (PBS; 30 mM Na2HPO4, 10 mM KH2PO4, […], pH 7.4). Appropriate concentrations of the bacteria (around 10^8 colony forming units per ml) were suspended in PBS and treated with indicated concentrations of ALAFAC and/or antibiotics for various times. The effect on bacterial viability was assessed by plating serial dilutions of bacterial sample on tryptic soy agar plates containing 5% sheep blood (viable counts) and determining viable CFUs after overnight growth at 37° C.

NRS 384 Staphylococci [2] = assay: Radioisotope 45Ca2+ transport assay; assay type: cell-based, Staphylococcus aureus; settings: ALAFAC addition, Ruthenium Red 30 μM
Description: Radioisotope ^45Ca^2+ transport assays. Staphylococcus aureus was grown to log phase, washed three times and resuspended in 1×PBS containing 0.5 mM CaCl2 (CaPBS). No glucose was added in order to minimize the interference created by extrusion of Ca^2+ via ATPase pumps. ^45CaCl2 (PerkinElmer; Waltham, Mass., USA) was added to the cells at a final concentration of 2.5 μCi/mL, followed by inhibitor compound, with each addition given two minutes equilibration time. The untreated baseline sample was measured at this point. The sample was then divided, ALAFAC was added to one of the tubes, and ^45Ca^2+ uptake was measured at various intervals. For each sample, 100 μL was dispensed onto Millipore 0.3 μm PHWP filters (EMD Millipore; Billerica, Mass., USA) presoaked in CaPBS, and immediately washed with 9 mL of CaPBS via syringe filtration through Millipore Swinnex® filter holders. Filters were placed in scintillation vials with 5 mL of scintillation fluid, and CPMs were detected on a Wallac 1409 liquid scintillation counter (Wallac Oy, Turku, Finland). The results were expressed as ΔCPM that was calculated for each sample at the indicated time points as the difference between ALAFAC-treated and untreated samples.

N.N.N.N.N.N.N.N.N.N.N.N.N.N.[Cl-].[Cl-].[Cl-].[Cl-].[Cl-].[Cl-].[O-2].[O-2].[Ru+3].[Ru+3].[Ru+4] [Ruthenium Red]
Effect of inhibitor on ALAFAC antibiotic potentiation in MIC assay (Staphylococcus aureus): completely abolished | Effect of inhibitor on ALAFAC-associated membrane depolarization (NRS 123 Staphylococci): completely abolished | Transmembrane proton gradient (intracellular pH) (NRS 384 Staphylococci [1]): did not fully inhibit | Effect of inhibitor on ALAFAC potentiation of gentamicin and penicillin G (Streptococcus pneumoniae): completely abolished | Effect of inhibitor on ALAFAC potentiation of gentamicin and penicillin G (Streptococcus pneumoniae; listed as ruthenium red): significantly blocked | Effect of inhibitor on ALAFAC-induced death (Streptococcus pneumoniae; lethal ALAFAC (12×MIC), ruthenium red 30 μM): significantly reduced | Intracellular Ca2+ (45Ca2+ uptake) (NRS 384 Staphylococci [2]): almost completely blocked
